Among the data in ChEMBL document CHEMBL1159379, “Rhuschalcones II-VI, five new bichalcones from the root bark of Rhus pyroides” (2003) are EC50 and CC50 values, retold here.

In brackets after ≈: the same amount, converted by molar mass.

Type in all cases: functional
For assay [1], the system named is HCT-116. Briefly: Cytotoxicity against human HCT116 cells. The following applies: read-out: ED50 (the source's name).
For assay [2], the system named is HT-29. Briefly: Cytotoxicity against human HT-29 cells. The following applies: read-out: ED50 (the source's name).
Assay [3] deals with HCT-15. Briefly: Cytotoxicity against human HCT15 cells. The following applies: read-out: ED50 (the source's name).
For assay [4], the system named is KM12. Briefly: Cytotoxicity against human KM12 cells. The following applies: read-out: ED50 (the source's name).
Assay [5] concerns COLO 205. Briefly: Cytotoxicity against human COLO205 cells. The following applies: read-out: ED50 (the source's name).
The test system of assay [6] is SW-620. The assay is described as follows: Cytotoxicity against human SW620 cells. To be noted: read-out: ED50 (the source's name).
In assay [7] the test system is SK-MEL-28. Briefly: Cytotoxicity against human SK-MEL-28 cells. To be noted: read-out: LC50 (the source's name).
For assay [8], the system named is SK-MEL-5. Briefly: Cytotoxicity against human SK-MEL-5 cells. To be noted: read-out: LC50 (the source's name).
Assay [9] concerns UACC-62. The assay is described as follows: Cytotoxicity against human UACC62 cells. The following applies: read-out: LC50 (the source's name).

`COc1cc(O)c(C(=O)/C=C/c2ccc(O)cc2)cc1Oc1ccc(/C=C/C(=O)c2ccc(O)cc2O)cc1` [RHUSCHALCONE III]: the EC50 in [1] amounted to 5 µg/mL (≈ 9.53 µM); in [2], 3 µg/mL (≈ 5.72 µM); in assay [3], 4 µg/mL (≈ 7.63 µM); in assay [4] it was 4 µg/mL (≈ 7.63 µM); in assay [5], 4 µg/mL (≈ 7.63 µM); in assay [6] it was 3 µg/mL (≈ 5.72 µM).

As to `O=C(/C=C/c1ccc(Oc2cc(C(=O)/C=C/c3ccc(O)cc3)c(O)cc2O)cc1)c1ccc(O)cc1O` [RHUSCHALCONE II], the EC50 worked out at 15 µg/mL (≈ 29.4 µM) in assay [1], 14 µg/mL (≈ 27.4 µM) in assay [2], 19 µg/mL (≈ 37.2 µM) in assay [4] and 15 µg/mL (≈ 29.4 µM) in [5].

For the compound `COc1cc(O)c(C(=O)/C=C/c2ccc(O)cc2)cc1Oc1ccc(C(=O)/C=C/c2ccc(O)cc2)c(O)c1` [RHUSCHALCONE IV], the CC50 in assay [7] was 4.6 µg/mL (≈ 8.77 µM); in assay [8], 4.8 µg/mL (≈ 9.15 µM); in assay [9], 4.6 µg/mL (≈ 8.77 µM). Further, in assay [5], the EC50 was found to be 23 µg/mL (≈ 43.8 µM).

In the case of `COc1ccc(C(=O)/C=C/c2ccc(Oc3cc(C(=O)/C=C/c4ccc(O)cc4)c(O)cc3OC)cc2)c(O)c1` [RHUSCHALCONE I], the EC50 stood at 5 µg/mL (≈ 9.28 µM) in [1]; 3 µg/mL (≈ 5.57 µM) in assay [2]; 51 µg/mL (≈ 94.7 µM) in assay [3]; 17 µg/mL (≈ 31.6 µM) in assay [4]; 11 µg/mL (≈ 20.4 µM) in [5]; 42 µg/mL (≈ 78 µM) in [6].

As for `O=C(/C=C/c1ccc(O)c(-c2cc(C(=O)/C=C/c3ccc(O)cc3)c(O)cc2O)c1)c1ccc(O)cc1O` [RHUSCHALCONE VI], the EC50 in assay [1] came to 5 µg/mL (≈ 9.79 µM); in assay [2], 10 µg/mL (≈ 19.6 µM); in assay [5], 24 µg/mL (≈ 47 µM).
